From US20230114207A1, “THE COMBINATION OF CYCLIN DEPENDENT KINASE 7 INHIBITOR AND IMMUNOTHERAPY FOR TREATMENT OF CANCER” (Dana-Farber Cancer Institute, Inc., priority 2019, published 2023)

What was measured:
[1] = test system: CDK7-Cyclin H complexes; test: Competitive pulldown assay (Bio-THZ1), Cyclin H; assay type: cell-based, mouse, human; settings: SCLC cells (RPP631, DMS79) treated 6 hours
Procedure: (§1) Bio-THZ1 pulldown experiments followed by western blotting of enriched proteins was performed as described in Kwiatkowski, et al., Nature, 2014, 511, 616-620. Briefly, cells were treated with YKL-5-124 or DMSO for 6 hr (in vitro) or 72 hr (in vivo). Following treatment, cells were washed twice with cold PBS and then lysed in the following lysis buffer: 50 mM TrisHCI pH 8.0, 150 mM NaCl, 1% NP-40, 5 mM EDTA, 1 mM DTT, and protease/phosphatase cocktails. Following clearance, lysates were treated with biotinylated THZ1 for pulldown overnight at 4° C. Lysates were further incubated at room temperature for 3 hr to increase the efficiency of covalent bond formation. Lysates were then incubated with streptavidin agarose for pulldown for an additional 2-3 hr at 4° C. Agarose beads were washed 5 times with lysis buffer and then boiled in 2×SDS at 95° C. SDS-page resolved precipitated proteins were probed for the indicated proteins.

[2] = test system: CDK1 and CDK2 T-loop phosphorylation; test: Western blotting of CDK1 and CDK2 T-loop phosphorylation in SCLC lines; assay type: cell-based, mouse, human; settings: representative panel of SCLC lines, 24 hours; 'as low as'
Procedure: Cells in culture were collected by centrifuging at 1,500 rpm and then washed with ice-cold PBS twice to completely remove residual medium. RIPA lysis buffer (Thermo Fisher Scientific, Cat #89900) supplemented with Halt™ Protease and Phosphatase Inhibitor Cocktail (Thermo Fisher Scientific, Cat #78440) was added to cell pellets to extract protein. Protein concentrations in lysates were measured by Pierce™ BCA Protein Assay Kit (Thermo Fisher Scientific, Cat #23225) and followed by the addition of SDS loading buffer (6×) and heated at 95° C. for 5 min. Equal amount of protein samples was subjected to 4-20% gradient gel SDS-PAGE and transferred to a nitrocellulose membrane (Bio-Rad, Cat #1704271). The membrane was blocked in Odyssey® Blocking Buffer (LI-COR, Cat #927-50003) at room temperature for 1 hour and incubated with appropriate antibodies at 4° C. overnight (Key Resources Table). Antibodies were diluted in TBST (TBS with 0.1% Tween) with 20% LI-COR Odyssey Blocking Buffer. On the next day, the membrane was washed with TBST (TBS with 0.1% Tween) four times and incubated with appropriate secondary antibodies (LI-COR, anti-Rabbit, Cat #925-32213; anti-Mouse, Cat #925-68072) at room temperature for 1 hour. Membranes were imaged using the LI-COR Odyssey® Imaging System.

[3] = test system: INSM1, ASCL1, NFIB and MYC in DMS79 and GLC16; test: RT-qPCR of super enhancer (SE)-associated genes; assay type: cell-based, human; settings: 24 hr
Procedure: (§2) Cell pellets were collected and then subjected to total RNA extraction using RNeasy Plus Mini Kit (QIAGEN, Cat #74136) according to the manufacturer's instructions, or using TRIzol:Chloroform phase-separation by centrifugation followed by RNA precipitation using isopropanol. The extracted RNA was reversely transcribed into cDNA using the High-Capacity RNA-to-cDNA™ Kit (Thermo Fisher Scientific, Cat #4387406) according to the manufacturer's instructions. The obtained cDNA samples were diluted and used for RT-qPCR. PowerUp™ SYBR™ Green Master Mix (Thermo Fisher Scientific, Cat #A25742) or TaqMan Gene Expression Master Mix (Life Technologies, Cat #4369514). Gene specific primers with sequences listed in Table 3 were used for PCR amplification and detection on the StepOnePlus™ Real-Time PCR System (Thermo Fisher Scientific). RT-qPCR data were normalized to Actb (mouse cells) or GUSB (human cells) and presented as fold changes of gene expression in the test sample compared to the control.

[4] = test system: SCLC cells (RPP631, DMS79, GLC16, NCI-H69, NCI-H82); test: Cell viability assay (CCK-8); assay type: cell-based, mouse, human
Procedure: Cells were seeded in 96-well plates (0.01-0.02×10^6 cells/well) in media and treated with YKL-5-124 at indicated concentrations and time points. Cell viability was measured using the MTS-based CCK-8 assay (Dojindo, Cat #CK04). Absorption at 450 nm was measured 3 hr after addition of CCK-8 reagent to cells.

[5] = test system: Tnf, Cxcl10 and Cxcl9 in RPP631; test: RT-qPCR of Tnf, Cxcl10 and Cxcl9; assay type: cell-based, mouse; settings: after 48 hr
Procedure: as §2

[6] = test system: cGAS-STING pathway; test: cGAS-STING pathway analysis (western blotting; cGAS knockout RT-qPCR); assay type: cell-based, mouse, human; settings: DMS79, RPP631, cGAS knockout RPP631
Procedure: as §2
Cells in culture were collected by centrifuging at 1,500 rpm and then washed with ice-cold PBS twice to completely remove residual medium. […] Protein concentrations in lysates were measured by Pierce™ BCA Protein Assay Kit (Thermo Fisher Scientific, Cat #23225) and followed by the addition of SDS loading buffer (6×) and heated at 95° C. for 5 min. […]

[7] = molecular target: T1, CDK7 (Mus musculus, UniProt Q03147); test: In vivo target engagement by competitive pulldown assay; settings: 10 mg/kg
T1 construct: from tissue
Procedure: as §1

[8] = test system: RPP GEMMs; test: Treatment study in autochthonous RPP GEMMs; assay type: in vivo, mouse
Procedure: All animal studies were reviewed and approved by the Institutional Animal Care and Use Committee (IACUC) at the New York University Langone Health (NYULH) and Dana-Farber Cancer Institute (DFCI). From 6 weeks of age, mice were induced with adenovirus-Cre recombinase (Ad-Cre) by intratracheal intubation to allow cre-lox-mediated recombination of floxed Rb1, p53 and p130 alleles. For syngeneic orthotopic models, ultrasound-guided transthoracic injection was performed using 200,000 RPP631, RP or RPP-MYC cells in 30 μL PBS directly into the lung of 6 to S-week-old C57BL/6 (Jackson Laboratory, Stock No: 000664). For OT-IT cell assay, OT-I mice were purchased from the Jackson Laboratory (Stock No: 003S31). Both males and females mice were used and all mice were maintained in accordance with the respective NYULH and DFCI on the care, welfare, and treatment of laboratory animals. […]
Animals were anesthetized with isoflurane to perform MRI of the lung field using BioSpec USR70/30 horizontal bore system (Bruker) to scan 24 consecutive sections. Tumor volumes within the whole lung were quantified using 3-D slicer software to reconstruct MRI volumetric measurements as described previously. […]

T1 sequence (Q03147 2-346 limits assumed): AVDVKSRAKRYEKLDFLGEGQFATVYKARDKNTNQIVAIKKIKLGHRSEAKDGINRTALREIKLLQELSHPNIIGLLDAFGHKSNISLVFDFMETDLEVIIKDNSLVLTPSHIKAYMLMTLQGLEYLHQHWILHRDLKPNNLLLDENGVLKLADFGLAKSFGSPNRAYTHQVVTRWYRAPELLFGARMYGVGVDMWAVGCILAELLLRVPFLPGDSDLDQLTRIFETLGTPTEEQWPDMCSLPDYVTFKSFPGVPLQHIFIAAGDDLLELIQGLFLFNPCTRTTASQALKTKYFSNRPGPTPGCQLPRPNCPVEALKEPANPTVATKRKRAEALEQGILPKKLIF
T1 sequence (Q61458 whole entry partner): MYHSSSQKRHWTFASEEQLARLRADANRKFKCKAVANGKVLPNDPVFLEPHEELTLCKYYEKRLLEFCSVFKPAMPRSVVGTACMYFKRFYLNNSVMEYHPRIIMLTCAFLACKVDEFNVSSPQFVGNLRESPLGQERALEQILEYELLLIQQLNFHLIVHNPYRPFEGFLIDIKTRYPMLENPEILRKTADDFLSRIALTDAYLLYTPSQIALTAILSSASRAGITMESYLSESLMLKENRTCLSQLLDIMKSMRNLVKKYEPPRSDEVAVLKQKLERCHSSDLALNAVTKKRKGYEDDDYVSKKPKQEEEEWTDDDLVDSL
T1 sequence (P51949 whole entry partner): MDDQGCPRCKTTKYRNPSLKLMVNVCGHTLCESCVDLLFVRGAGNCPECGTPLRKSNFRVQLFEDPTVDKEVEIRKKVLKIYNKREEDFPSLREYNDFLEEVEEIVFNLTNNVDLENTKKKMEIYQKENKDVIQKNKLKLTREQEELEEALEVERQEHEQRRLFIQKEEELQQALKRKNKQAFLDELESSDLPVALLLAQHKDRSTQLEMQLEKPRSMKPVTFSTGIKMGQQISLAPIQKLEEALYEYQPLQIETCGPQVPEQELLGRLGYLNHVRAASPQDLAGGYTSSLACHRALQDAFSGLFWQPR

C=CC(=O)Nc1ccc(C(=O)Nc2n[nH]c3c2CN(C(=O)N[C@H](CN(C)C)c2ccccc2)C3(C)C)cc1 [YKL-5-124]
block of Cyclin H pulldown [1]: efficiently prevented | concentrations robustly inhibiting CDK1 and CDK2 T-loop phosphorylation [2]: ≥ 50 nM | expression of super enhancer (SE)-associated genes including INSM1, ASCL1, NFIB and MYC [3]: no effect | growth rate (cell viability) compared to control cells ([4]; all tested concentrations, up to 7 days): significant reduction | kind of growth effect ([4]; up to day 7): cytostatic effect with a tendency of cytotoxic effects at longer time points | tumor cell expression of Tnf, Cxcl10 and Cxcl9 [5]: significantly stimulated | dependence of the immune stimulatory effect on the cGAS-STING pathway [6]: independent of this pathway | target engagement in tumor-bearing mice [7]: further confirmed | mice with more than 50% increase of tumor burden ([8]; 3-week time point): none | median overall survival ([8]; RPP GEMMs): 56 days
